Measurements: patent US20040214192A1, “Methods of testing for allergic diseases and therapeutic agents for treating same” (Genox Research, Inc., priority 2002, published 2004)

T1: LBD of Nor1 (Homo sapiens, UniProt Q92570)
T1 construct: GST-LBD of Nor1 was expressed in E. coli and purified; GST (N); made in house; host or cells: E. coli
T1 sequence (Q92570 394-623 limits assumed): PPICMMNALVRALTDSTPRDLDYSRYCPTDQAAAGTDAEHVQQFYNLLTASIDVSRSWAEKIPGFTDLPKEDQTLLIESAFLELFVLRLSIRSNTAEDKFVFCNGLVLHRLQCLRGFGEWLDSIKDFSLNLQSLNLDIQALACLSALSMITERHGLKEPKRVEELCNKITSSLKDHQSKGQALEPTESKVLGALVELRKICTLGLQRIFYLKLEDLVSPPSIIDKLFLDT


Legend:
[1] = target: T2, full-length NOR-1 (MINOR) (Homo sapiens, UniProt Q92570); assay: Mammalian Two Hybrid luciferase reporter, GAL4-full-length Nor1 construct; assay type: cell-based; conditions: for Full length Nor1-ligand activity RXR(+) / Full length Nor1-ligand activity RXR(−): NIH3T3 cells, luciferase; for Full length Nor1-ligand activity RXR(+): with RXRα; for function of enhancing the transcriptional activation ability of NOR-1 (MINOR): luciferase reporter system; for Full length Nor1-ligand activity RXR(−): without RXRα
T2 construct: Full length Nor1-; expressed in transfected cells; host or cells: NIH3T3
Experimental: A full-length gene or the ligand-binding site of NOR-1 is inserted into X, and the full-length gene of the retinoic acid X receptor (RXR)α is inserted into Y. These constructs are transfected into NIH3T3 cells, and the activity of induced luciferase is measured.
Mammalian Two Hybrid system was slightly modified. […] Actually, activity could not be detected for lipid-soluble metabolites existing on the metabolic map of mammals that might be natural ligands of NOR-1 in a screening system wherein only the ligand-binding domain was inserted. A plasmid wherein the full-length gene of NOR-1 (MINOR) had been inserted into pBIND and a luciferase reporter plasmid containing a GAL4 binding site were cotransfected into NIH3T3 cells, and the luciferase activity was measured automatically. By further addition of small molecule substances to this system enables screening of ligands by their transcription enhancing activity.
NOR-1 (MINOR) expression is induced under conditions where the leukocytes are hyperactive, such as in atopic dermatitis peripheral blood, and apoptosis of cells is very likely to occur as a result of this induced NOR-1 (MINOR) expression. Ligands existing in vivo may exist at sites where nuclear receptors are highly expressed. Therefore, small-molecule lipid-soluble mediators that are expected to be produced under such conditions were added to the assay system as candidate ligands to evaluate their luciferase activity enhancing function. […] Thus, the method established by the present inventors opened a way to discover native ligands and synthetic ligands of NOR-1 (MINOR) by high throughput.

LBD of Nor1 = target: T1, LBD of Nor1; assay: BIAcor S51 binding to GST-LBD of Nor1; conditions: BIAcor S51, comparison with GST
From the text: Glutathione S-transferase (GST) was used as a comparison control and 13,14-Dihydro-15-keto-PGA2 as a negative control.
In the present invention, as a means for detecting or measuring bound compound, a biosensor utilizing surface plasmon resonance phenomenon may be used. A biosensor (for example, BIAcore, Pharmacia) utilizing the surface plasmon resonance phenomenon allows real-time observation of the interaction between the NOR-1 protein and a test compound as a surface plasmon resonance signal. Therefore, using biosensors such as BIAcore, the binding between the NOR-1 protein and the test compound can be evaluated.

[2] = system: Nor1 gene that completely lacked the LBD region (ΔLBD); assay: Mammalian Two Hybrid reporter with LBD deletion mutant of Nor1; assay type: cell-based, human; conditions: Nor1 lacking the LBD region
From the text: Therefore, prostaglandin A2 was implicated to function by actually acting on the LBD region of the nuclear receptor.

[3] = system: Nor1 expression in peripheral blood eosinophils; assay: Nor1 expression induction in cultured peripheral blood eosinophils; assay type: cell-based, human; conditions: cultured peripheral blood eosinophils from healthy subjects
From the text: Values collected for beta-actin and GAPDH are shown.
A large amount of peripheral blood eosinophils were collected from healthy subjects, and cultured in suspension in a petri dish while suppressing their activation. […] The anti-CD30 antibody that has an agonistic activity against eosinophilic CD30 has recently been receiving attention, because it induces apoptosis of eosinophils via a specific intracellular pathway and may serve as a therapeutic agent for asthma.
Thus, the apoptosis by anti-CD30 antibody accompanied by induction of Nor1 may occur through an eosinophil-specific apoptosis pathway that is different from the conventional pathway.

T2 sequence (Q92570 whole entry, the tested form may be a part): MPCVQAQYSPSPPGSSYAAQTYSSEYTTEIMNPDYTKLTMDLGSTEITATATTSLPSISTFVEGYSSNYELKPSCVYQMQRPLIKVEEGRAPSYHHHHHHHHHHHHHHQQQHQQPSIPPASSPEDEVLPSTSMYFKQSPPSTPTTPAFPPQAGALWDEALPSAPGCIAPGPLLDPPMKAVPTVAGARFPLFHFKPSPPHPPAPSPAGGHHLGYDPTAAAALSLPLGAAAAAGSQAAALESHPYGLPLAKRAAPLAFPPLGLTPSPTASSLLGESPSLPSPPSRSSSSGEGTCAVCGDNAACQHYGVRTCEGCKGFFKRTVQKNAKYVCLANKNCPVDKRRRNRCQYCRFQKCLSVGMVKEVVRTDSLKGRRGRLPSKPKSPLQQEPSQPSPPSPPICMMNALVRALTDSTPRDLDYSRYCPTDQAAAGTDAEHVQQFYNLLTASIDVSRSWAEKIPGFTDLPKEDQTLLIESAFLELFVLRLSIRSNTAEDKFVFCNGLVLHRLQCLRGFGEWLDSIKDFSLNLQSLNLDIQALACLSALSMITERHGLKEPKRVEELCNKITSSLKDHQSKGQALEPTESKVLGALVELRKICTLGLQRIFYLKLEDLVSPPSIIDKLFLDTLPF

Full length Nor1-ligand activity RXR(+) [1] [µM] | Full length Nor1-ligand activity RXR(+) ([1]; symbol) | Full length Nor1-ligand activity RXR(−) [1] [µM] | Full length Nor1-ligand activity RXR(−) ([1]; symbol) | Molecule | function of enhancing the transcriptional activation ability of NOR-1 (MINOR) [1] | binding to the LBD of Nor1 (LBD of Nor1) | transcriptional activity with LBD deletion mutant [2] | induction of Nor1 [3]
10 | ∘ |  |  | CCCCC[C@H](O)/C=C/[C@H]1C=CC(=O)[C@H]1CCCCCCC(=O)O [8-iso Prostaglandin A1] |  |  |  | 
 |  |  |  | CCCCCC(=O)CC[C@H]1C=CC(=O)[C@@H]1C/C=C\CCCC(=O)O [13,14-dihydro-15-keto Prostaglandin A2] | did not show any activity in the reporter system | did not bind to LBD |  | 
10 | ∘ | 10 | ∘ | CCCCC[C@@](C)(O)/C=C/[C@H]1C=CC(=O)[C@@H]1C/C=C\CCCC(=O)O [15(R)-15-methyl Prostaglandin A2] | enhancing the transcriptional activation ability of NOR-1 (MINOR) |  |  | 
10 | ∘ |  |  | CCCCC/C=C\C=C1\C(=O)C=C[C@@H]1C/C=C\CCCC(=O)O [15-dioxy-Δ^12,14-Prostaglandin J2] |  |  |  | 
5 | ∘ | 5 | ∘ | CCCCC(C)(C)[C@H](O)/C=C/[C@H]1C=CC(=O)[C@@H]1C/C=C\CCCC(=O)O [16,16-dimethyl Prostaglandin A2] |  |  |  | 
30 | ∘ | 30 | ∘ | O=C(O)CCC/C=C\C[C@H]1C(=O)C=C[C@@H]1/C=C/[C@@H](O)COc1ccccc1 [16-phenoxy tetranor Prostaglandin A2] | enhancing the transcriptional activation ability of NOR-1 (MINOR) |  |  | 
10 | ∘ | 10 | ∘ | O=C(O)CCC/C=C\C[C@H]1C(=O)C=C[C@@H]1/C=C/[C@@H](O)CCc1ccccc1 [17-phenyl trinor Prostaglandin A2] | enhancing the transcriptional activation ability of NOR-1 (MINOR) |  |  | 
10 | ∘ | 10 | ∘ | CCCCC[C@H](O)/C=C/[C@H]1C=CC(=O)[C@@H]1CCCCCCC(=O)O [Prostaglandin A1] | enhancing the transcriptional activation ability of NOR-1 (MINOR) | binding of PGA1 and PGA2 to the LBD of Nor1 was detected |  | 
10 | ∘ | 10 | ∘ | CCCCC[C@H](O)/C=C/[C@H]1C=CC(=O)[C@@H]1C/C=C\CCCC(=O)O [Prostaglandin A2] | enhancing the transcriptional activation ability of NOR-1 (MINOR) | binding of PGA1 and PGA2 to the LBD of Nor1 was detected | remarkable suppression of the transcriptional activity | 
 |  |  |  | IL-5: cytokine used to activate eosinophils |  |  |  | did not lead to the induction of Nor1
 |  |  |  | IL-4: cytokine used to activate eosinophils (protein, UniProt P05112 25-153, looked up) Interleukin-4: HKCDITLQEIIKTLNSLTEQKTLCTELTVTDIFAASKNTTEKETFCRAATVLRQFYSHHEKDTRCLGATAQQFHRHKQLIRFLKRLDRNLWGLAGLNSCPVKEANQSTLENFLERLKTIMREKYSKCSS |  |  |  | did not lead to the induction of Nor1
